Laboratory results as given in patent publication US8969375B2, “CDK9 kinase inhibitors” (AbbVie Inc., priority 2013, dated 2015).

What was measured:
CDK9/Cyclin T1 = target: T1, CDK9/Cyclin T1 (Homo sapiens, UniProt P50750); experiment: CDK9 enzyme activity, LANCE ULight TR-FRET kinase assay; format: biochemical; conditions: 1000 μM ATP, 4 nM CDK9/Cyclin T1, 30 minutes
T1 construct: purchased Carna Biosciences 04-110
Experimental: CDK9 enzyme activities were measured using LANCE ULight TR-FRET kinase assay reagents (PerkinElmer, Waltham, Mass.). Compounds were directly added in 100% DMSO to white low volume assay plates (Perkin Elmer Proxiplate 6008289) using a Labcyte Echo acoustic dispenser. Assay reagents in serine/threonine kinase assay buffer containing 20 mM HEPES, 10 mM MgCl2, 100 mM Na3VO4, and 0.0075% Triton X-100. were added for final reaction mixture concentrations of 1000 μM ATP, 100 nM U-light MBP peptide (Perkin Elmer TRF0109M) and reaction initiated with 4 nM CDK9/Cyclin T1 (Carna Biosciences 04-110). The kinase reaction was carried out for 30 minutes before addition of stopping buffer to a final of 20 mM EDTA and 0.5 nM of LANCE Ultra Europium anti-phospho-MBP antibody (PerkinElmer TRF0201M) in LANCE detection buffer (PerkinElmer CR97-100). The reaction was equilibrated for 1 hour and the signal read in the Perkin Elmer Envision in TR-FRET mode (excitation at 320 nm and emission at 615/665 nm).

H929 cells = experiment: Cell viability assay (Cell TiterGlo), H929 cells; format: cell-based, human; conditions: Homo sapiens, NCI-H929, 24 hours
Experimental: Cell viability assays were performed using A431 or H929 cells. A431 cells were seeded in 96-well plates at 10,000 cells/well, and after overnight incubation, treated with compounds at 2-times the final concentration to result in a dose response of 3-fold dilutions from 10 μM to 0.0005 μM (50 μL/well, 0.1% final DMSO concentration). H929 cells were seeded in 96-well plates at 10,000 cells/well and treated immediately with compounds as described above. After 24 hours at 37° C., cell viability was measured using Cell TiterGlo reagent (Promega) with a luminescence reader. Alternately, cell viability assays were performed in 384-well format. A431 cells were seeded in 384-well plates at 2500 cells/well and, after overnight incubation, treated with compounds in a dose response of 3-fold dilutions from 10 μM to 0.0005 μM ([…], 0.1% final DMSO concentration). For the H929 viability assay, […] of the compounds was dispensed into 384-well plates in a dose response as described above and cells were immediately seeded in 384-well plates at 2500 cells/well. After 24 hours at […], cell viability was measured using Cell TiterGlo reagent (Promega) with a luminescence reader.

T1 sequence (P50750 whole entry): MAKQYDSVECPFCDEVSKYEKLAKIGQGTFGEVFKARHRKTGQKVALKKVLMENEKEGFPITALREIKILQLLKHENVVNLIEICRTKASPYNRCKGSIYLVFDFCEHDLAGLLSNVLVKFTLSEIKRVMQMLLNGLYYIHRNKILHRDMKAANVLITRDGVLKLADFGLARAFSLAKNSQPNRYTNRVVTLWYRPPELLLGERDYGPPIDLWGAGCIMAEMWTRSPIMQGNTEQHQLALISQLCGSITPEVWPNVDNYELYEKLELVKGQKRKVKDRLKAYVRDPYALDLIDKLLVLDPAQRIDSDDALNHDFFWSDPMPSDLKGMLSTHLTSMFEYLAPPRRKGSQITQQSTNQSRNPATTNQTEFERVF
T1 sequence (O60563 whole entry partner): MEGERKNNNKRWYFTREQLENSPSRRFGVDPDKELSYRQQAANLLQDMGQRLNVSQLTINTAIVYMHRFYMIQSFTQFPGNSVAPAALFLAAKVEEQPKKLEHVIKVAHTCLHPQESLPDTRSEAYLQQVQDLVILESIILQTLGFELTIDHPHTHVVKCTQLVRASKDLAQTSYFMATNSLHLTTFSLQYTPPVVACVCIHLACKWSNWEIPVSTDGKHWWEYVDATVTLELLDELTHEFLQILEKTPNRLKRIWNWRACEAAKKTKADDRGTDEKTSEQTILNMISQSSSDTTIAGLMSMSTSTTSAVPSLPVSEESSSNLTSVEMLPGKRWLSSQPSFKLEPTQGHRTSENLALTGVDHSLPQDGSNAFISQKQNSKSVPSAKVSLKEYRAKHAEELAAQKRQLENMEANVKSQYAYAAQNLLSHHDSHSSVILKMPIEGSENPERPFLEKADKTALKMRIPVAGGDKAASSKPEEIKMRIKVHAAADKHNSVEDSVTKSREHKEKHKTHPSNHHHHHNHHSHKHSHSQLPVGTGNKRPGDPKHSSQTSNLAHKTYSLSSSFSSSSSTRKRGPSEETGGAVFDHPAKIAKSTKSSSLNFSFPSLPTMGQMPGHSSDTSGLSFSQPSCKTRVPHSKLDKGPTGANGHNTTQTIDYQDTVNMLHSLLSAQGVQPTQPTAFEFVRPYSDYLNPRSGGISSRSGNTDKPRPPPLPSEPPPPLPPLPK

IC50 (CDK9/Cyclin T1) [nM]	EC50 (H929 cells) [nM]	Structure (SMILES)
85	6300	c1cc(-c2cnc3ccn(CC4CCOCC4)c3c2)c2cc(C3CCNCC3)[nH]c2n1 [Example 30, 6-{2-(piperidin-4-yl)-1H-pyrrolo[2,3-b]pyridin-4-yl}-1-(tetrahydro-2H-pyran-4-ylmethyl)-1H-pyrrolo[3,2-b]pyridine]
30		N#Cc1cn(Cc2ccccc2)c2cc(-c3ncnc4[nH]c(C5=CCN(CC(O)CO)CC5)cc34)ccc12 (stereo not shown) [Example 31, 1-benzyl-6-{6-[1-(2,3-dihydroxypropyl)-1,2,3,6-tetrahydropyridin-4-yl]-7H-pyrrolo[2,3-d]pyrimidin-4-yl}-1H-indole-3-carbonitrile]
51	890	Fc1cccc(CCn2nnc3ccc(-c4ccnc5[nH]c(C6CCNCC6)cc45)cc32)c1 [Example 32, 1-[2-(3-fluorophenyl)ethyl]-6-{2-(piperidin-4-yl)-1H-pyrrolo[2,3-b]pyridin-4-yl}-1H-benzotriazole]
18	1100	Fc1cccc(CCn2nnc3ccc(-c4ccnc5[nH]c(C6CCNCC6)c(Cl)c45)cc32)c1 [Example 33, 6-[3-chloro-2-(piperidin-4-yl)-1H-pyrrolo[2,3-b]pyridin-4-yl]-1-[2-(3-fluorophenyl)ethyl]-1H-benzotriazole]
17	130	CS(=O)(=O)N1CCC(c2cc3c(-c4cnc5ccn(Cc6cccc(F)c6)c5c4)ccnc3[nH]2)CC1 [Example 34, 1-(3-fluorobenzyl)-6-{2-[1-(methylsulfonyl)piperidin-4-yl]-1H-pyrrolo[2,3-b]pyridin-4-yl}-1H-pyrrolo[3,2-b]pyridine]
13	200	N#Cc1cn(Cc2cccc(F)c2)c2nc(-c3ccnc4[nH]c(C5CCNCC5)cc34)ccc12 [Example 35, 1′-(3-fluorobenzyl)-2-(piperidin-4-yl)-1H,1′H-4,6′-bipyrrolo[2,3-b]pyridine-3′-carbonitrile]
26	170	Fc1cncc(Cn2ccc3ncc(-c4ccnc5[nH]c(C6CCNCC6)cc45)cc32)c1 [Example 37, 1-[(5-fluoropyridin-3-yl)methyl]-6-[2-(piperidin-4-yl)-1H-pyrrolo[2,3-b]pyridin-4-yl]-1H-pyrrolo[3,2-b]pyridine]
62	440	O=C(CO)N1CC=C(c2cc3c(-c4ccc5nnn(CC6CCOCC6)c5c4)ccnc3[nH]2)CC1 [Example 38, 2-hydroxy-1-[4-{4-[1-(tetrahydro-2H-pyran-4-ylmethyl)-1H-benzotriazol-6-yl}-1H-pyrrolo[2,3-b]pyridin-2-yl]-3,6-dihydropyridin-1(2H)-yl]ethanone]
74	200	CS(=O)(=O)N1CC=C(c2cc3c(-c4ccc5nnn(CC6CCOCC6)c5c4)ccnc3[nH]2)CC1 [Example 39, 6-{2-[1-(methylsulfonyl)-1,2,3,6-tetrahydropyridin-4-yl]-1H-pyrrolo[2,3-b]pyridin-4-yl}-1-(tetrahydro-2H-pyran-4-ylmethyl)-1H-benzotriazole]
91	590	COC(=N)c1cn(Cc2cccc(F)c2)c2cc(-c3ccnc4[nH]c(C5CCNCC5)cc34)c(F)cc12 [Example 41, methyl 5-fluoro-1-(3-fluorobenzyl)-6-[2-(piperidin-4-yl)-1H-pyrrolo[2,3-b]pyridin-4-yl]-1H-indole-3-carboximidate]

More lines, now with the values behind:

Structure (SMILES)	IC50 (CDK9/Cyclin T1) [nM]	EC50 (H929 cells) [nM]
CS(=O)(=O)N1CCC(c2cc3c(-c4ccc5ncn(CC6CCOCC6)c5c4)ccnc3[nH]2)CC1 [Example 6, 6-{2-[1-(methylsulfonyl)piperidin-4-yl]-1H-pyrrolo[2,3-b]pyridin-4-yl}-1-(tetrahydro-2H-pyran-4-ylmethyl)-1H-benzimidazole]	38	130
c1cc(-c2ccc3ncn(CC4CCOCC4)c3n2)c2cc(C3CCNCC3)[nH]c2n1 [Example 7, 5-[2-(piperidin-4-yl)-1H-pyrrolo[2,3-b]pyridin-4-yl]-3-(tetrahydro-2H-pyran-4-ylmethyl)-3H-imidazo[4,5-b]pyridine]	69	500
CS(=O)(=O)N1CCC(c2cc3c(-c4ccc5c(C#N)cn(Cc6cccc(F)c6)c5c4)ccnc3[nH]2)CC1 [Example 11, 1-(3-fluorobenzyl)-6-{2-[1-(methylsulfonyl)piperidin-4-yl]-1H-pyrrolo[2,3-b]pyridin-4-yl}-1H-indole-3-carbonitrile]	110	178
CNC(=O)N1CCC(c2cc3c(-c4ccc5ncn(Cc6cncc(F)c6)c5c4)ccnc3[nH]2)CC1 [Example 16, 4-(4-{1-[(5-fluoropyridin-3-yl)methyl]-1H-benzimidazol-6-yl}-1H-pyrrolo[2,3-b]pyridin-2-yl)-N-methylpiperidine-1-carboxamide]	94	180
OCC(O)CN1CCC(c2cc3c(-c4ccc5ncn(Cc6cncc(F)c6)c5c4)ccnc3[nH]2)CC1 (stereo not shown) [Example 17, 3-[4-(4-{1-[(5-fluoropyridin-3-yl)methyl]-1H-benzimidazol-6-yl}-1H-pyrrolo[2,3-b]pyridin-2-yl)piperidin-1-yl]propane-1,2-diol]	66	120
Fc1cc2ncn(CC3CCOCC3)c2cc1-c1ccnc2[nH]c(C3CCNCC3)cc12 [Example 18, 5-fluoro-6-[2-(piperidin-4-yl)-1H-pyrrolo[2,3-b]pyridin-4-yl]-1-(tetrahydro-2H-pyran-4-ylmethyl)-1H-benzimidazole]	120	858
OCC(O)CN1CCC(c2cc3c(-c4cc5c(cc4F)ncn5CC4CCOCC4)ccnc3[nH]2)CC1 (stereo not shown) [Example 19, 3-(4-{4-[5-fluoro-1-(tetrahydro-2H-pyran-4-ylmethyl)-1H-benzimidazol-6-yl}-1H-pyrrolo[2,3-b]pyridin-2-yl]piperidin-1-yl)propane-1,2-diol]	97	1110
CNC(=O)N1CCC(c2cc3c(-c4cc5c(cc4F)ncn5CC4CCOCC4)ccnc3[nH]2)CC1 [Example 20, 4-{4-[5-fluoro-1-(tetrahydro-2H-pyran-4-ylmethyl)-1H-benzimidazol-6-yl]-1H-pyrrolo[2,3-b]pyridin-2-yl}-N-methylpiperidine-1-carboxamide]	160	1970
O=C(CO)N1CCC(c2cc3c(-c4cc5c(cc4F)ncn5CC4CCOCC4)ccnc3[nH]2)CC1 [Example 21, 1-(4-{4-[5-fluoro-1-(tetrahydro-2H-pyran-4-ylmethyl)-1H-benzimidazol-6-yl}-1H-pyrrolo[2,3-b]pyridin-2-yl]piperidin-1-yl)-2-hydroxyethanone]	100	1850
N#Cc1cn(Cc2ccccc2)c2cc(-c3ncnc4[nH]c(C5=CCNCC5)cc34)ccc12 [Example 22, 1-benzyl-6-[6-(1,2,3,6-tetrahydropyridin-4-yl)-7H-pyrrolo[2,3-d]pyrimidin-4-yl]-1H-indole-3-carbonitrile]	16	100
CS(=O)(=O)N1CCC(c2cc3c(-c4cc5c(cc4F)ncn5CC4CCOCC4)ccnc3[nH]2)CC1 [Example 23, 5-fluoro-6-{2-[1-(methylsulfonyl)piperidin-4-yl]-1H-pyrrolo[2,3-b]pyridin-4-yl}-1-(tetrahydro-2H-pyran-4-ylmethyl)-1H-benzimidazole]	55	550
Clc1cc2ncn(CC3CCOCC3)c2cc1-c1ccnc2[nH]c(C3CCNCC3)cc12 [Example 27, 5-chloro-6-[2-(piperidin-4-yl)-1H-pyrrolo[2,3-b]pyridin-4-yl]-1-(tetrahydro-2H-pyran-4-ylmethyl)-1H-benzimidazole]	53	7000
N#Cc1cn(CC2CCOCC2)c2cc(-c3ccnc4[nH]c(C5CCNCC5)cc34)cnc12 [Example 28, 6-[2-(piperidin-4-yl)-1H-pyrrolo[2,3-b]pyridin-4-yl]-1-(tetrahydro-2H-pyran-4-ylmethyl)-1H-pyrrolo[3,2-b]pyridine-3-carbonitrile]	180	> 10000
C1=C(c2cc3c(-c4ccc5nnn(CC6CCOCC6)c5c4)ccnc3[nH]2)CCNC1 [Example 36, 1-(tetrahydro-2H-pyran-4-ylmethyl)-6-[2-(1,2,3,6-tetrahydropyridin-4-yl)-1H-pyrrolo[2,3-b]pyridin-4-yl]-1H-benzotriazole]	59	450
Fc1cccc(Cn2ccc3ncc(-c4ccnc5[nH]c(C6=CCNCC6)cc45)cc32)c1 [Example 40, 1-(3-fluorobenzyl)-6-[2-(1,2,3,6-tetrahydropyridin-4-yl)-1H-pyrrolo[2,3-b]pyridin-4-yl]-1H-pyrrolo[3,2-b]pyridine]	17	53
